Experimental data as given in ChEMBL document CHEMBL1681786, “Synthesis, biological evaluation and 3D-QSAR studies of 3-keto salicylic acid chalcones and related amides as novel HIV-1 integrase inhibitors” (Bioorg Med Chem, 2011).

Assays:
[1] = biological target: T1, Human immunodeficiency virus type 1 integrase (Human immunodeficiency virus 1, UniProt Q7ZJM1); assay: Inhibition of Human immunodeficiency virus 1 integrase strand transfer activity after 30 mins by polyacrylamide gel electrophoresis
[2] = biological target: T1, Human immunodeficiency virus type 1 integrase; assay: Inhibition of Human immunodeficiency virus 1 integrase-mediated 3'-processing after 30 mins by polyacrylamide gel electrophoresis
[3] = test system: Human immunodeficiency virus 1; assay: Antiviral activity against Human immunodeficiency virus 1 LAI infected in human PBMC assessed as inhibition of viral replication after 5 days by reverse transcriptase assay; format: functional, organism-based; conditions: 120 h
PBMC = assay: Cytotoxicity against human PBMC after 6 days by trypan blue assay; conditions: 144 h
CCRF-CEM = assay: Cytotoxicity against human CEM cells after 6 days by trypan blue assay; conditions: 144 h

T1 sequence (Q7ZJM1 whole entry): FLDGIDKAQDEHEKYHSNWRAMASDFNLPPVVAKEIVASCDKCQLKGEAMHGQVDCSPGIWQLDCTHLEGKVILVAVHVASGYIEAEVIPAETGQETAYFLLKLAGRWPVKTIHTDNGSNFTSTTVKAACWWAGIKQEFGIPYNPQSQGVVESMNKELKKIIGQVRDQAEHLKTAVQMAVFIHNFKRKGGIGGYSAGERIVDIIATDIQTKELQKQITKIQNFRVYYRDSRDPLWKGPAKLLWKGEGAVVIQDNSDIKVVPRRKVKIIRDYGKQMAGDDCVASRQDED

SMILES | IC50 [1] [µM] | IC50 [2] [µM] | EC50 [3] [µM] | EC90 [3] [µM] | IC50 (PBMC) [µM] | IC50 (CCRF-CEM) [µM]
O=C(O)c1cc(Br)cc(C(=O)/C=C/c2cc(Cl)ccc2Cl)c1O | 18 | 47 | – | – | – | –
O=C(O)c1cc(Br)cc(C(=O)/C=C/c2cccc(OC(F)(F)F)c2)c1O | 52 | > 100 | – | – | – | –
COc1cccc(/C=C/C(=O)c2cc(Br)cc(C(=O)O)c2O)c1OC | 34 | 62 | – | – | – | –
O=C(O)c1cc(Br)cc(C(=O)/C=C/c2cccc(Br)c2)c1O | 18 | 19 | – | – | – | –
Cc1cccc(C(=O)NCc2ccc(F)cc2)c1O | > 100 | > 100 | – | – | – | –
O=C(O)c1cc(Cl)cc(C(=O)/C=C/c2cc(Cl)ccc2Cl)c1O | 25 | 75 | – | – | – | –
O=C(O)c1cc(F)cc(C(=O)/C=C/c2ccc(Cl)cc2Cl)c1O | 24 | 52 | – | – | – | –
COc1cc(F)c(/C=C/C(=O)c2cc(Br)cc(C(=O)O)c2O)cc1OC | 76 | > 100 | – | – | – | –
O=C(O)c1cc(Cl)cc(C(=O)/C=C/c2cc(Cl)cc(Cl)c2Cl)c1O | 17 | 55 | – | – | – | –
O=C(O)c1cc(Br)cc(C(=O)/C=C/c2ccccc2)c1O | 25 | 75 | – | – | – | –
CCOc1ccc2ccccc2c1/C=C/C(=O)c1cc(Br)cc(C(=O)O)c1O | 46 | 92 | – | – | – | –
O=C(O)c1cc(Br)cc(C(=O)/C=C/c2cccc([N+](=O)[O-])c2)c1O | 32 | 49 | – | – | – | –
O=C(O)c1cc(Br)cc(C(=O)/C=C/c2ccc3sccc3c2)c1O | 11 | 23 | 10.1 | 24.3 | 39.1 | 20.7
O=C(O)c1cc(Cl)cc(C(=O)/C=C/c2ccc(Cl)c(Cl)c2)c1O | 41 | 87 | – | – | – | –
N#Cc1cc(Br)cc(C(=O)/C=C/c2c(Cl)ccc(Cl)c2Cl)c1O | 44 | > 100 | – | – | – | –
Cc1cc(C)cc(/C=C/C(=O)c2cc(Br)cc(C(=O)O)c2O)c1 | 58 | > 100 | – | – | – | –
O=C(O)c1cc(F)cc(C(=O)/C=C/c2c(Cl)ccc(Cl)c2Cl)c1O | 39 | 82 | – | – | – | –
O=C(NCc1ccc(F)cc1)c1cc(Br)ccc1O | > 100 | > 100 | – | – | – | –
O=C(O)c1cc(Br)cc(C(=O)NCc2ccc(F)cc2)c1O | 15 | > 100 | – | – | – | –
O=C(O)c1cc(Cl)cc(C(=O)/C=C/c2ccc(Cl)cc2)c1O | 53 | 85 | – | – | – | –
O=C(O)c1cc(Br)cc(C(=O)/C=C/c2ccsc2)c1O | 18 | 30 | – | – | – | –
O=C(O)c1cc(Cl)cc(C(=O)/C=C/c2ccc(Cl)cc2Cl)c1O | > 100 | > 100 | – | – | – | –
O=C(O)c1cc(Br)cc(C(=O)/C=C/c2cccc(Cl)c2)c1O | 9 | 45 | – | – | – | –
O=C(O)c1cc(F)cc(C(=O)/C=C/c2cc(Cl)cc(Cl)c2Cl)c1O | 15 | 33 | – | – | – | –
O=C(O)c1cc(F)cc(C(=O)CCc2cc(Cl)ccc2Cl)c1O | 57 | > 100 | – | – | – | –
O=C(O)c1cc(Br)cc(C(=O)/C=C/c2ccccc2F)c1O | 32 | 74 | – | – | – | –
O=C(O)c1cc(Br)cc(C(=O)/C=C/c2ccc(Br)cc2)c1O | 5 | 11 | 8.7 | 21 | 24.4 | 27.5
O=C(O)c1cc(Br)cc(C(=O)/C=C/c2ccc(Oc3ccc(Cl)cc3)cc2)c1O | 16 | 22 | – | – | – | –

SMILES | IC50 [1] [µM] | IC50 [2] [µM] | EC50 [3] [µM] | EC90 [3] [µM] | IC50 (PBMC) [µM] | IC50 (CCRF-CEM) [µM]
Cc1cc(C(=O)O)c(O)c(C(=O)/C=C/c2c(Cl)ccc(Cl)c2Cl)c1 | 50 | > 100 | – | – | – | –
COc1ccc(/C=C/C(=O)c2cc(Br)cc(C(=O)O)c2O)cc1OC1CCCC1 | 55 | 100 | – | – | – | –
O=C(O)c1cc(F)cc(C(=O)/C=C/c2ccc(Cl)cc2)c1O | 17 | 36 | – | – | – | –
O=C(O)c1cc(Br)cc(C(=O)/C=C/c2cc(Cl)cc(Cl)c2Cl)c1O | 13 | 20 | – | – | – | –
O=C(O)c1cc(Br)cc(C(=O)/C=C/c2ccc(Cl)c(Cl)c2)c1O | 14 | 27 | – | – | – | –
O=C(O)c1cc(Br)cc(C(=O)/C=C/c2cccc(Oc3ccc(Cl)cc3)c2)c1O | 18 | 25 | – | – | – | –
O=Cc1cc(Br)cc(C(=O)NCc2ccc(F)cc2)c1O | 8 | > 100 | 30.8 | 52.7 | 44 | 40.2
COc1ccc(/C=C/C(=O)c2cc(Br)cc(C(=O)O)c2O)c(Cl)c1OC | 76 | > 100 | – | – | – | –
O=C(O)c1cc(Br)cc(C(=O)/C=C/c2ccccc2-c2ccco2)c1O | 16 | > 100 | – | – | – | –
O=C(O)c1cc(Br)cc(C(=O)/C=C/c2ccc(Cl)cc2Cl)c1O | 7 | 28 | 13.9 | 26 | 22.1 | 23.8
Cc1cn([C@H]2C[C@H](N=[N+]=[N-])[C@@H](CO)O2)c(=O)[nH]c1=O [ZIDOVUDINE] | – | – | 0.0025 | 0.01 | > 100 | 56.1
O=C(O)c1cc(Cl)cc(C(=O)/C=C/c2c(Cl)ccc(Cl)c2Cl)c1O | 30 | 77 | – | – | – | –
O=C(O)c1cc(Br)cc(C(=O)/C=C/c2ccc(Cl)cc2)c1O | 12 | 81 | – | – | – | –
O=C(O)c1cc(Br)cc(C(=O)/C=C/c2c(Cl)cccc2Cl)c1O | 16 | 52 | – | – | – | –
O=C(O)c1cc(F)cc(C(=O)/C=C/c2cccc(Cl)c2Cl)c1O | 30 | 55 | – | – | – | –
O=C(/C=C/c1cc(Br)cc([N+](=O)[O-])c1O)c1cc(Cl)cc(Cl)c1Cl | – | > 333 | – | – | – | –
O=C(O)c1cc(Cl)cc(C(=O)/C=C/c2cccc(Cl)c2Cl)c1O | 92 | 100 | – | – | – | –
O=C(O)c1cc(Br)cc(C(=O)/C=C/c2ccc(I)cc2)c1O | 35 | 69 | – | – | – | –
O=C(O)c1cc(Br)cc(C(=O)/C=C/c2cccc(Cl)c2Cl)c1O | 19 | 58 | – | – | – | –
COc1ccc(/C=C/C(=O)c2cc(Br)cc(C(=O)O)c2O)c(OC)c1OC | 51 | 85 | – | – | – | –
O=C(O)c1cc(Br)cc(C(=O)/C=C/c2ccccc2OCc2ccccc2)c1O | 9 | 21 | – | – | – | –
O=C(O)c1cc(Br)cc(C(=O)/C=C/c2cccc(F)c2)c1O | 59 | 71 | – | – | – | –
COc1cccc2c(/C=C/C(=O)c3cc(Br)cc(C(=O)O)c3O)cccc12 | – | 54 | – | – | – | –
O=C(O)c1cc(Br)cc(C(=O)/C=C/c2cc3c(cc2Cl)OCO3)c1O | 63 | 79 | – | – | – | –
O=C(O)c1cc(Br)cc(C(=O)/C=C/c2ccccc2Cl)c1O | 14 | 52 | – | – | – | –
O=C(O)c1cc(F)cc(C(=O)/C=C/c2cc(Cl)ccc2Cl)c1O | 29 | 50 | – | – | – | –
O=C(O)c1cc(Br)cc(C(=O)/C=C/c2c(Cl)ccc(Cl)c2Cl)c1O | < 3.7 | 23 | 7.3 | 20.3 | 22.7 | 19
